Our source for the logP and logD values is the SangsterLogP compilation.

The nature of the first series: method code SF-AS, from DOI: 10.1002/1520-6017(200012)89:12<1525::aid-jps3>3.0.co;2-t.
Conditions: not given
By logP is commonly meant the decadic logarithm of the partition coefficient of the neutral form, usually between octanol and water. A high value points to higher lipophilicity. On to `CC(=O)N(O)CCCCCNC(=O)CCC(=O)N(O)CCCCCNC(=O)CCC(=O)N(O)CCCCCNC=O`, for which the logP is -0.1. For the compound `CC(=O)N(O)CCCCCNC(=O)CCC(=O)N(O)CCCCCNC(=O)CCC(=O)N(O)CCCCCNC(=O)CCC(=O)O`, the logP is -0.5.

In turn, `CC(=O)NCCCCCN(O)C(=O)CCC(=O)NCCCCCN(O)C(=O)CCC(=O)NCCCCCN(O)C(C)=O` returned a logP of 0.1. On the same count and under the same terms, to `CC(=O)N(O)CCCCCNC(=O)CCC(=O)N(O)CCCCCNC(=O)CCC(=O)N(O)CCCCCNC(=O)Cc1ccccc1` belongs 0.9; to `CCCC(=O)NCCCCCN(O)C(=O)CCC(=O)NCCCCCN(O)C(=O)CCC(=O)NCCCCCN(O)C(C)=O`, 0.42; to `CCC(=O)NCCCCCN(O)C(=O)CCC(=O)NCCCCCN(O)C(=O)CCC(=O)NCCCCCN(O)C(C)=O`, 0.26.

As for `CC(=O)N(O)CCCCCNC(=O)CCC(=O)N(O)CCCCCNC(=O)CCC(=O)N(O)CCCCCNC(=O)c1ccccc1`, the logP turned out to be 0.86. Same read-out and setting: under `CCCCC(=O)NCCCCCN(O)C(=O)CCC(=O)NCCCCCN(O)C(=O)CCC(=O)NCCCCCN(O)C(C)=O` stands 0.88.

Staying with this series, now noted: pH 7.4.
Broadly, the logD is the decadic logarithm of the distribution of all forms, ionised or not, between an organic phase and buffer at a given pH. `CCCCCCCC(=O)NCCCCCN(O)C(=O)CCC(=O)NCCCCCN(O)C(=O)CCC(=O)NCCCCCN(O)C(C)=O` yielded a logD of 1.09. On the same count and under the same terms, under `CCCCCC(=O)NCCCCCN(O)C(=O)CCC(=O)NCCCCCN(O)C(=O)CCC(=O)NCCCCCN(O)C(C)=O` stands 1.1.
